Reference: patent US20110250133A1, “GASTRIN […] PEPTIDE COMPOUNDS” (priority 2003, published 2011)
Entries after “also recorded” stand apart in the source; their conditions may differ.

How the values were obtained:
[1] = system: PC-3 prostate cancer cells; test: Effect of drug treatment on GRP receptor binding (177Lu-AMBA) in PC-3 cells; type: cell-based, human; details: for change in 177Lu-AMBA binding (GRP receptor specific signal per cell) vs untreated controls, PC-3: Table 25, range 0.001-0.1 μM; for change in GRP receptor specific signal per cell (177Lu-AMBA binding): drug 0.1-1.0 μM (4-OH Tamoxifen 0.001-0.1 μM); for decrease in 177Lu-AMBA binding (GRP receptor specific signal per cell): drug 0.1-1.0 μM (gefitinib 0.1-10 μM)
Procedure: (§1) RPMI 1640 supplemented with 20 mM HEPES, 0.1% BSA (w/v), 0.5 mM PMSF (AEBSF), bacitracin (50 mg/500 ml), pH 7.4.
(§2) Incubations were stopped by the addition of 200 μL of ice-cold binding buffer. Plates were washed three more times with binding buffer, 140 μL of scintillation fluid was added to each well, the plates were sealed and analyzed on a Microβ plate reader (Microbeta Trilux, Perkin-Elmer).
PC-3 (human prostate adenocarcinoma, bone metastasis, AR-, ER) were obtained from the American Type Culture Collection. The growth medium for PC-3 cells is RPMI 1640 (10-041-CM, Mediatech, Inc), supplemented with 10% heat inactivated FBS (Hyclone, SH30070.03) and PSF-1× (as in Example LXVI). The binding buffer, lapatinib solutions, treatment method and cell binding assay is the same as in Example LXVI.

[2] = system: T47D human breast cancer cells; test: Effect of drug treatment on GRP receptor binding (177Lu-AMBA) in T47D cells; type: cell-based; details: for change in 177Lu-AMBA binding (GRP receptor specific signal per cell) vs untreated controls, T47D: Table 25, range 0.001-0.1 μM; for decrease in 177Lu-AMBA binding (GRP receptor specific signal per cell) / increase in 177Lu-AMBA binding (GRP receptor specific signal per cell): relative to untreated control; for decrease in 177Lu-AMBA binding (GRP receptor specific signal per cell): drug 0.1-1.0 μM (4-OH Tamoxifen 0.001-0.1 μM); for increase in 177Lu-AMBA binding (GRP receptor specific signal per cell): drug 0.1-1.0 μM (gefitinib 0.1-10 μM)
Text: T-47D breast cancer cells (human metastatic mammary gland ductal adenocarcinoma isolated from pleural effusion, ER+, PR+) were obtained from the American Type Culture Collection.

[3] = system: BT-474 human breast cancer cells; test: Effect of drug treatment on GRP receptor binding (177Lu-AMBA) in BT-474 cells; type: cell-based; details: for change in 177Lu-AMBA binding (GRP receptor specific signal per cell) vs untreated controls, BT-474: Table 25, range 0.001-0.1 μM; for increase in 177Lu-AMBA binding (GRP receptor specific signal per cell) / decrease in 177Lu-AMBA binding (GRP receptor specific signal per cell): relative to untreated control; for increase in 177Lu-AMBA binding (GRP receptor specific signal per cell): drug 0.1-1.0 μM (β2-estradiol 1 nM); for change in GRP receptor specific signal per cell (177Lu-AMBA binding): drug 0.1-1.0 μM (gefitinib 0.1-10 μM); for change in 177Lu-AMBA uptake (GRP-R) on a viable cell basis, BT-474: ↑ increase, ↓ decrease vs untreated; for decrease in 177Lu-AMBA binding (GRP receptor specific signal per cell): drug 0.1-1.0 μM (4-OH Tamoxifen 0.001-0.1 μM)
Procedure: BT-474 breast cancer cells (human primary invasive ductal carcinoma; ER+, PR+, amplified HER2/neu+) were obtained from the American Type Culture Collection. The growth medium for BT-474 cells is Hybri-care Medium (Cat No: 46X, ATCC) supplemented with 10% heat inactivated FBS (Hyclone, SH30070.03), 0.2% NaHCO3, and antibiotic/antimycotic “PSF-1×” (GibcoBRL, 15240-062) for a final concentration of penicillin-streptomycin (1×, 100 units/mL), and fungizone (0.25 μg/mL). […] Cells for binding experiments were plated on Day 0 at 5.6×10^4 cells/cm^2 in 96-well white/clear bottom microtiter plates (Falcon Optilux-I), or 96 well black/clear collagen I cellware plates (Beckton Dickinson Biocoat).
as §1, §2
Treatment: BT-474 cells were plated on Day 0 and treated on Days 1 and 2 (DT1, DT2).

[4] = biological target: T1, NMB-R (Rattus norvegicus, UniProt P24053); test: Competition with 125I-NMB for NMB-R in C6 cells (linker specificity); type: binding, rodent; details: for receptor subtype preference (GRP-R vs NMB-R): from IC50 with 125I-NMB (C6) and 125I-BBN (PC3), cut off 10x the IC50 of [Tyr4]-BBN; for GRP-R and NMB-R (binds both) / GRP-R (GRP-R preferring): yes / —, cut off 10x the IC50 of [Tyr4]-BBN with 125I-NMB on C6 cells; for receptor preference in words (GRP-R / GRP-R and NMB-R): wrapped cell: 'No selective preference' or 'preference for NMB-R';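 on all read-outs here: test cells: rodent glioblastoma C6 line carrying NMB-R, human prostate cancer PC3 line carrying GRP-R, affinity fitted by one-site competition nonlinear regression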
T1 construct: C6, an NMB-R expressing rodent glioblastoma cell line; host or cells: C6 glioblastoma cells, intact adherent cells
T1 sequence (P24053 1-390): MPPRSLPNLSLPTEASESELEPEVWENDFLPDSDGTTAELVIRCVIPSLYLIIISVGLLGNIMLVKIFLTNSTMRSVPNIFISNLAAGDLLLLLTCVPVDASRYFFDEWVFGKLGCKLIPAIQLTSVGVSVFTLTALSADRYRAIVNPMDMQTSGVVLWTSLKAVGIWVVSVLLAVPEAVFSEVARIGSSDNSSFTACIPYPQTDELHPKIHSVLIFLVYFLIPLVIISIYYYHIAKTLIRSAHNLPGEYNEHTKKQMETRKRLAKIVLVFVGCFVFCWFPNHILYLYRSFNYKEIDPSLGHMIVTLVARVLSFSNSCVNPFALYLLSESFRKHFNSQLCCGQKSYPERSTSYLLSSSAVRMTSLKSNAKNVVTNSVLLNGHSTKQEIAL
Procedure: Two cell lines, C6, an NMB-R expressing rodent glioblastoma cell line and PC3, a GRP-R expressing human prostate cancer cell line, were used in this assay. The affinity of various unlabeled compounds for each receptor subtype (NMB-R and GRP-R) was determined indirectly by measuring its ability to compete with the binding of ^125I-NMB or ^125I-BBN to its corresponding receptors in C6 and PC3 cells.
Cells for the assays were plated at a concentration of 9.6×10^4/well in 48 well poly-lysine coated plates (Beckton Dickinson Biocoat). PC3 were obtained from ATCC(CRL-1435) and cultured in RPMI 1640 (ATCC) supplemented with 2 mM L-glutamine, 1.5 g/L Sodium bicarbonate, 10 mM HEPES and 10% FBS. […] PC3 cells for the assays were plated at a concentration of 2.0×10^4 cells/well in 96-well white/clear bottom plates (Falcon Optilux-I). Plates were used for the assays on day 2 of the post-plating.
RPMI 1640 (ATCC) containing 25 mM HEPES, 0.2% BSA fraction V, 1.0 mM AEBSF (CAS # 3087-99-7) and 0.1% Bacitracin (CAS # 1405-87-4), pH 7.4. Custom made ^125I-[Tyr^0]NMB, >2.0 Ci/μmole (Amersham Life Science) [^125I-NMB] and commercially available ^125I-[Tyr^4]BBN, >2.0 Ci/μmole (Perkin Elmer Life Science) [^125I-BBN] were used as radioligands.
Using a 48-well plate assay system (for C6 study) competition experiments were performed using ^125I-NMB. […] Selection of compounds for the assay was based on linker subtype.
The binding parameters obtained from the studies were analyzed using a one-site competition non-linear regression analysis with GraphPad Prism. The relative affinity of various compounds for NMB-R in C6 cells were compared with those obtained using commercially available [Tyr^4]-BBN and [Tyr^0]-NMB. To distinguish the GRP-R preferring compounds from NMB-R plus GRP-R preferring compounds, IC50 values obtained for each compound were compared with those obtained from [Tyr^4-BBN with ^125I-NMB on C6 cells.

[5] = PC-3, relative to untreated control
[6] = drug 0.1-1.0 μM, ↑ increase, ↓ decrease vs untreated

CC/C(=C(\c1ccc(O)cc1)c1ccc(OCCN(C)C)cc1)c1ccccc1 [Compounds 4-OH-Tamoxifen]
change in 177Lu-AMBA binding (GRP receptor specific signal per cell) vs untreated controls, PC-3 [1]: 0% | change in 177Lu-AMBA binding (GRP receptor specific signal per cell) vs untreated controls, T47D [2]: −35% | change in 177Lu-AMBA binding (GRP receptor specific signal per cell) vs untreated controls, BT-474 [3]: −73%

C[C@]12CC[C@@H]3c4ccc(O)cc4CC[C@H]3[C@@H]1CC[C@@H]2O [β2-estradiol]
change in GRP receptor specific signal per cell (177Lu-AMBA binding) ([1]; PC-3): no change | change in 177Lu-AMBA binding (GRP receptor specific signal per cell) vs untreated controls, PC-3 [1]: 0% | change in GRP receptor specific signal per cell (177Lu-AMBA binding) ([2]; T-47D): did not change | change in 177Lu-AMBA binding (GRP receptor specific signal per cell) vs untreated controls, T47D [2]: 0% | increase in 177Lu-AMBA binding (GRP receptor specific signal per cell) ([3]; BT-474): 47% | change in 177Lu-AMBA binding (GRP receptor specific signal per cell) vs untreated controls, BT-474 [3]: 47%

DO3A-monoamide-Abu4-QWAVGHLM-NH2
receptor subtype preference (GRP-R vs NMB-R) [4]: dual affinity for both GRP-R and NMB-R | GRP-R and NMB-R (binds both) [4]: yes

DO3A-monoamide-Aoc-QWAVGHL-Nle-NH2
receptor subtype preference (GRP-R vs NMB-R) [4]: dual affinity for both GRP-R and NMB-R | GRP-R and NMB-R (binds both) [4]: Yes

DO3A-monoamide-Apa3-QWAVGHLM-NH2
receptor subtype preference (GRP-R vs NMB-R) [4]: dual affinity for both GRP-R and NMB-R | GRP-R and NMB-R (binds both) [4]: yes

DO3A-monoamide-Cha-Cha-QWAVGHLM-NH2
receptor subtype preference (GRP-R vs NMB-R) [4]: selective affinity towards GRP-R | GRP-R (GRP-R preferring) [4]: yes

DO3A-monoamide-Nal1-Bip-QWAVGHLM-NH2
receptor subtype preference (GRP-R vs NMB-R) [4]: selective affinity towards GRP-R | GRP-R (GRP-R preferring) [4]: yes

DO3A-monoamide-Nal1-Bpa4-QWAVGHLM-NH2
receptor subtype preference (GRP-R vs NMB-R) [4]: selective affinity towards GRP-R | GRP-R (GRP-R preferring) [4]: yes

Gln-Trp-Ala-Val-Gly-His-Leu-Met-NH2 [BBN7-14]
receptor subtype preference (GRP-R vs NMB-R) [4]: did not show any preference | receptor preference in words (GRP-R / GRP-R and NMB-R) [4]: No selective

N-[4-[[[[4,7,10-Tris(carboxymethyl)-1,4,7,10-tetraazacyclododec-1-yl]acetyl]glycyl]amino]-3-methoxybenzoyl]-L-glutaminyl-L-tryptophyl-1-alanyl-L-valyl-glycyl-L-histidyl-L-leucyl-L-methioninamide [Compound L240]
receptor subtype preference (GRP-R vs NMB-R) [4]: selective affinity to GRP-R

N-[(3β,5β,12α)-3-[[[4,7,10-Tris(carboxymethyl)-1,4,7,10-tetraazacyclododec-1-yl]acetyl]amino]-4-aminobenzoyl-glycyl-L-glutaminyl-L-tryptophyl-L-alanyl-L-valyl-glycyl-L-histidyl-L-leucyl-L-methioninamide [Compound L204]
receptor subtype preference (GRP-R vs NMB-R) [4]: selective affinity to NMB-R; also recorded: favor the NMB subtype | receptor preference in words (GRP-R / GRP-R and NMB-R) [4]: preference for NMB-R

N-[(3β,5β,12α)-3-[[[4,7,10-Tris(carboxymethyl)-1,4,7,10-tetraazacyclododec-1-yl]acetyl]amino]-glycyl-4-aminobenzoyl-L-leucyl-L-tryptophyl-L-alanyl-L-threonyll-glycyl-L-histidyl-L-phenylalanyl-L-methioninamide [Compound L227]
receptor subtype preference (GRP-R vs NMB-R) [4]: affinity to GRP-R in addition to its inherent NMB-R affinity

anastrozole
decrease in 177Lu-AMBA binding (GRP receptor specific signal per cell) [1, 5]: up to 10% | decrease in 177Lu-AMBA binding (GRP receptor specific signal per cell) ([2]; T-47D): up to 10% | change in GRP receptor specific signal per cell (177Lu-AMBA binding) ([3]; BT-474): no change | change in 177Lu-AMBA uptake (GRP-R) on a viable cell basis, BT-474 ([3]; drug 0.1-1.0 μM): NC (NC: Little(<10%) or no change in Lu-AMBA uptake)

bortezomib
decrease in 177Lu-AMBA binding (GRP receptor specific signal per cell) [1, 5]: up to 60% | decrease in 177Lu-AMBA binding (GRP receptor specific signal per cell) ([2]; T-47D): up to 50% | decrease in 177Lu-AMBA binding (GRP receptor specific signal per cell) ([3]; BT-474): up to 50%

erlotinib
decrease in 177Lu-AMBA binding (GRP receptor specific signal per cell) [1, 5]: 5-20% | increase in 177Lu-AMBA binding (GRP receptor specific signal per cell) ([2]; T-47D): 5-20% | change in GRP receptor specific signal per cell (177Lu-AMBA binding) ([3]; BT-474): no change | change in 177Lu-AMBA uptake (GRP-R) on a viable cell basis, BT-474 ([3]; drug 0.1-1.0 μM): NC (NC: Little(<10%) or no change in Lu-AMBA uptake)

gefitinib
decrease in 177Lu-AMBA binding (GRP receptor specific signal per cell) [1, 5]: 20-40% | increase in 177Lu-AMBA binding (GRP receptor specific signal per cell) ([2]; T-47D): up to 20% | change in GRP receptor specific signal per cell (177Lu-AMBA binding) ([3]; BT-474): no change | change in 177Lu-AMBA uptake (GRP-R) on a viable cell basis, BT-474 ([3]; drug 0.1-10 μM): NC (NC: Little(<10%) or no change in Lu-AMBA uptake)

imatinib
decrease in 177Lu-AMBA binding (GRP receptor specific signal per cell) [1, 5]: 15-25% | increase in 177Lu-AMBA binding (GRP receptor specific signal per cell) ([2]; T-47D): up to 15% | change in GRP receptor specific signal per cell (177Lu-AMBA binding) ([3]; BT-474): no change | change in 177Lu-AMBA uptake (GRP-R) on a viable cell basis, BT-474 ([3]; drug 0.1-1.0 μM): NC (NC: Little(<10%) or no change in Lu-AMBA uptake)

lapatinib
change in proliferation ([1]; PC-3, 0.1-1.0 μM): no change | change in GRP receptor specific signal per cell (177Lu-AMBA binding) ([1]; PC-3): no change | change in 177Lu-AMBA uptake (GRP-R) on a viable cell basis, PC-3 [1, 6]: NC (NC: Little(<10%) or no change in Lu-AMBA uptake) | decrease in cell proliferation ([2]; T-47D, highest concentration): ≤ 35% | increase in 177Lu-AMBA binding (GRP receptor specific signal per cell) ([2]; T-47D): up to 50% | decrease in cell proliferation ([3]; BT-474, highest concentration): ≤ 65% | increase in 177Lu-AMBA binding (GRP receptor specific signal per cell) ([3]; BT-474): up to 140%

sorafenib
decrease in 177Lu-AMBA binding (GRP receptor specific signal per cell) [1, 5]: 10-20% | change in GRP receptor specific signal per cell (177Lu-AMBA binding) ([2]; T-47D): no change | change in 177Lu-AMBA uptake (GRP-R) on a viable cell basis, T47D [2, 6]: NC (NC: Little(<10%) or no change in Lu-AMBA uptake) | decrease in 177Lu-AMBA binding (GRP receptor specific signal per cell) ([3]; BT-474): 10-25%

sunitinib
increase in 177Lu-AMBA binding (GRP receptor specific signal per cell) ([1]; PC-3, relative to untreated control, drug 0.1-1.0 μM): up to 10% | increase in 177Lu-AMBA binding (GRP receptor specific signal per cell) ([2]; T-47D): up to 13% | decrease in 177Lu-AMBA binding (GRP receptor specific signal per cell) ([3]; BT-474): up to 8%
